Results: patent US8853406B2, “Substituted phenylenediamines as inhibitors of the interaction between MDM2 and P53” (Janssen Pharmaceutica NV, priority 2007, dated 2014)

System: human U87 gliomoblastoma xenograft tumors
Test: In vivo anti tumour effects, U87 glioblastoma xenograft
Set-up: species or system NMRI Nude mice
Settings: for in vivo antitumoral activity: s.c. U87 xenograft in NMRI Nude mice; for tumor growth of pre-established U87 xenograft: 21 days
Method: FIG. 7 is the Antitumoral effect of compound No. 1 in U87 Glioblastoma Xenograft Tumors in NMRI Nude mice: • On day 0, male NMRI Nude mice were inoculated with a single subcutaneous injection into the inguinal region with human U87 Glioblastoma tumor cells ([…]). On day 8, mice were treated p.o. with vehicle (control group; 10% hydroxypropyl-β-cyclodextrin (□)) or vehicle containing Co No. 1 at either 2.5 mg/kg (▴), 5 mg/kg (▾), 10 mg/kg (♦) or 20 mg/kg (●) for 21 days (QD×21). Subcutaneous tumor volumes and body weights were measured twice weekly, until end of study and results represented as relative tumor volumes (mm^3). Dosing period indicated under x-axis.
The minimal efficacious dose (according to the NCI standard) in this model was 5 mg/kg.
Immuno-deficient (athymic) male NMRI Nude (Nu/Nu) mice (20-25 g were obtained from Janvier, France) were used for theses studies. Initial weight was approximately […]. All animals were maintained under SPF “full barrier” conditions with free access to food and water. Mice were group housed under a 12-h light:dark cycle (lights on at 06:00 h) at a temperature of 19 to 22° C. and 35 to 40% humidity in Techniplast type-3 IVC cages. Mice were fed a standard Laboratory chow. All experiments were carried out in accordance with the European Communities Council Directives (86/609/EEC) and were approved by the local ethical committee. For an established tumor xenograft model (tumor volume ˜200 mm^3), mice were randomized according to tumor volumes, with 10 to 14 mice per treatment group.
The human U87 glioma tumor cell line was derived from a patient. Cells were cultured at 37° C. in a humidified atmosphere (5% CO2, 95% air), in DMEM medium supplemented with 2 mM L-glutamine, 2.0 mM sodium pyruvate, 25 units/ml penicillin/25 μg/ml streptomycin and 10% fetal bovine serum. Cells were maintained as cell monolayer cultures, being passaged twice weekly at 3×10^6 cells per T175 flask using the following procedure. Briefly cells were washed with PBS (without Mg^2+, Ca^2+), before addition of trypsin-EDTA to the culture flasks. After detachment of cells the trypsin-EDTA was inactivated by addition of complete medium. Cell suspension was then transferred to 50 ml Falcon tube and centrifuged for 3 min at 1200 rpm. Medium was aspirated, with the cells being re-suspended in an appropriate volume of complete medium. The cells were counted in a haemocytometer and their viability was assessed by 0.25% trypan blue exclusion. An appropriate volume of cell suspension was then added to either a new T175 culture flask(s) or roller bottle containing fresh medium. For large scale-up growth of U87 tumor cells, an appropriate number of roller bottles were seeded with 0.5 to 1×10^7 cells 1 week prior to inoculation of mice. The medium was changed twice during this period, with the last change being the day prior to cell injection. Cells were collected as described above, with the exception that after centrifugation, the cells were re-suspended in cold (4° C.) serum-free medium. Mice were injected in the inguinal region with 1×10^7 cells total in a 200 μl volume.
Human U87 glioma cells were injected directly into the inguinal region of the male NMRI Nude mice (1×10^7 cells/200 μl/animal) on day 0 (D0). […] Tumor size and body weights were measured twice weekly, with mice monitored daily for clinical signs of toxicity for the duration of the treatment. […]

Row | Compound | in vivo antitumoral activity | tumor growth of pre-established U87 xenograft (10 mg/kg oral) | tumor growth of pre-established U87 xenograft (20 mg/kg oral) | minimal efficacious dose (according to the NCI standard) (U87 xenograft, oral QD x 21) | in vivo antitumoral activity (listed as Co No. 1)
1 | Cc1cc(Nc2ccnc3c2CCC3O)ccc1NCCc1c[nH]c2c(C)cccc12 (single isomer, unassigned) [Compound No. 2] | showed in vivo antitumoral activity |  |  |  | 
2 | Cc1cc(Nc2ccnc3c2CCC3O)ccc1NCCc1c[nH]c2c(C)cccc12 (single isomer, unassigned) [Compound No. 1] |  | complete tumor growth inhibition and regression | complete tumor growth inhibition and regression | 5 mg/kg | potent inhibition in growth
